Measured values published in patent US20220008296A1, “CAPSULE FORMULATION” (Capsugel Belgium NV, priority 2014, published 2022).

Legend:
[1] = cited from earlier work
[2] = acid resistance experiment: litmus colour inside oil-filled, band-sealed DRcaps capsule submerged in acid; assay type: physicochemical; set-up: key to Result (color): −: almost all red/unsuitable; +: about half red/passable; ++: all blue/excellent; conditions: for liquid color / acidification inside the capsule (in words) / Result (color): 120 minutes after submersion in JP first liquid pH1.2, 37°; for liquid color / acidification inside the capsule (in words): Example 2; for Result (color): colour of litmus powder in the fill of a DRcaps capsule, n=3
Procedure: The fine powder of a litmus reagent that changes to red in response to acid (blue, Wako Pure Chemical Industries Ltd. high grade), used as an active ingredient, is dispersed or dissolved in 0.2% by weight each of MCT, which is an edible oil (medium chain fatty acid triglyceride, coconad MT (made by Kao Co.) and glycerin, which is a water-based edible additive (made by Kao Co.) (dissolves very readily in water, comparative example). Then, 300 μL each of this solution is loaded into the separated body portion of an acid resistant hard capsule made by Capsugel (DRcaps (trademark), size no. 2, transparent no color). Then, a capsule formulation is prepared by sealing the fitted part of the cap portion and the body portion of the hard capsule using a band sealing solution (see FIG. 1). It should be noted that the band sealing solution is produced based on the information described in International Application PCT/US2013/041838 (application date May 20, 2013) (title of invention “ACID RESISTANT BANDING SOLUTION FOR TWO PIECE HARD CAPSULES”) wherein US Patent Application No. 61/707,135 (application date: Sep. 28, 2012) forms the basic application, which is an undisclosed application. The composition of the band sealing solution is ethanol: 59.9% by weight, shellac: 37.0% by weight, water: 1.6% by weight, and surfactant (sorbitan fatty acid aster and glycerin fatty acid ester) 1.5% by weight.
(§1) These capsule formulations are wrapped in wire to prevent the capsule formulations from floating up, and submerged in the first liquid (pH1.2 liquid) in the Japanese Pharmacopoeia which is maintained at 37° to simulate the gastric acid inside a living organism.
The experiment was carried out with the same conditions used in example 1 (amount of oil, measurement conditions, measurement time, and the like), and the effect on acid resistance when another oil or surfactant is enclosed in the capsule was examined. In this example, the following criteria were determined based on the color of the fine litmus powder dissolved or dispersed in oil enclosed in a capsule.
as §1, with “were” for “are”, “Pharmacopoeia” for “Pharmacopoeia which is”, “organism. The color of the liquid in the capsule 120 minutes after submersion is shown (see FIG. 4).” for “organism.”
It should be noted that because the four oils, DHA, rice germ oil, vitamin E, and vitamin A, are light yellow to dark green, visually confirming the change of the fine litmus powder from blue to red due to acid seeping into oil within the capsule was difficult. Therefore, the color was confirmed by enlarging the litmus particles dispersed within the oil from outside the capsule using a microscope. The determination criteria for this was the same as described above (see FIG. 5).

Compound | Specific Gravity (25° C.) [1] | liquid color / acidification inside the capsule (in words) [2] | liquid color in the capsule ([2]; after 20 minutes in JP first liquid pH1.2, 37°, Example 1) | Result (color) [2]
OCC(O)CO [Glycerin, reference compound] | 1.264 | the entire inside of the capsule turned red | the entire inside of the capsule turned red | −
Glycerin fatty acid ester | 1.02 | the entire inside of the capsule turned red |  | −
Sorbitan fatty acid ester | 0.95 | the entire inside of the capsule turned red |  | −
Vitamin A | 0.92 | the interior of the capsule did not become acidic |  | ++
